Experimental data as given in patent publication US10246449B2, “1,2,3 triazole-thiazole compounds, process for preparation and use thereof” (Council of Scientific & Industrial Research, priority 2015, dated 2019).

Row | SMILES | melting point
1 | CCOC(=O)c1cn(Cc2csc(-c3ccc(Cl)cc3)n2)nn1 [Compound 7, Ethyl 1-((2-(4-chlorophenyl)thiazol-4-yl)methyl)-1H-1,2,3-triazole-4-carboxylate] | 149 to 151 °C
2 | Clc1ccc(-c2nc(Cn3cc(COC4CCCCO4)nn3)cs2)cc1 (centres unmarked) [Compound 6, 2-(4-Chlorophenyl)-4-((4-(((tetrahydro-2H-pyran-2-yl)oxy)methyl)-1H-1,2,3-triazol-1-yl)methyl)thiazole] | 92 to 94 °C
3 | OCCCCc1cn(Cc2csc(-c3ccc(Cl)cc3)n2)nn1 [Compound 8, 4-(1-((2-(4-Chlorophenyl)thiazol-4-yl)methyl)-1H-1,2,3-triazol-4-yl)butan-1-ol] | 157 to 159 °C
4 | CCCCc1cn(Cc2csc(-c3ccc(Cl)cc3)n2)nn1 [Compound 2, 4-((4-Butyl-1H-1,2,3-triazol-1-yl)methyl)-2-(4-chlorophenyl)thiazole] | 98 to 99 °C
5 | CCCCCc1cn(Cc2csc(-c3ccc(Cl)cc3)n2)nn1 [Compound 5, 2-(4-Chlorophenyl)-4-((4-pentyl-1H-1,2,3-triazol-1-yl)methyl)thiazole] | 88 to 90 °C

Continued, values first:

Row | melting point | SMILES
6 | 152 to 154 °C | OCc1cn(Cc2csc(-c3ccc(Cl)cc3)n2)nn1 [Compound 4, (1-((2-(4-Chlorophenyl)thiazol-4-yl)methyl)-1H-1,2,3-triazol-4-yl)methanol]
7 | 175 to 177 °C | Clc1ccc(-c2nc(Cn3nncc3-c3ccccc3)cs2)cc1 [Compound 9, 2-(4-chlorophenyl)-4-((5-phenyl-1H-1,2,3-triazol-1-yl)methyl)thiazole]
8 | 109 to 111 °C | Clc1ccc(-c2nc(Cn3cc(C4CC4)nn3)cs2)cc1 [Compound 3, 2-(4-Chlorophenyl)-4-((4-cyclopropyl-1H-1,2,3-triazol-1-yl)methyl)thiazole]
